The subject of test [1] is Hela cells. The test can be described thus: Phototoxicity, 24 h incubation, 1.5-15 joule/cm^2. The following applies: 670-690 nm. It counts as cell-based. As for the experimental part:
In other experiment, the cells were incubated with photosensitizers at 37° C. for 24 hours, and irradiated by exposed on ice by a laser medical device “LD 680-2000” (wavelength of 670-690 nm) in a dose of 1.5-15 joule/cm^2.

In test [2] the test system is HeLa cell culture. The test is described as follows: Phototoxicity (photodynamic activity), 3.5 h incubation, 3.3 joule/cm^2. To be noted: incubation 3.5 hours. More on the design: number of HELA cells (relative to the control): unit not given here. The class given is cell-based. As for the experimental part:
To examine the photodynamic effects of a photosensitizer on a HeLa cell culture, the photosensitizer solution was added to the nutrient media at a final concentration of 0.1, 0.5, 1.0, 5.0 or 10 mcg/ml on day 3 after transplanting the cell culture into flasks. The flasks were wrapped with a light protecting cover, and incubated at 37° C. for 3.5 hours. Then, the cells were washed with Hank's solution, and exposed on ice by a laser medical device “LD 680-2000” (wavelength: 670-690 nm) at a dose of 3.3 joule/cm^2. After 20-24 hours, the available cell monolayer was dispersed using a 0.02%-Versene solution, and the number of tumor cells was calculated in Goriaev's chamber. For each point, 3 flasks were used.

For test [3], the system named is HeLa tumor cells. The test is described as follows: Cytotoxicity (antiproliferative assay) in the absence of light exposure. It counts as cell-based. The following applies: 24 hr incubation. As for the experimental part: Cytotoxicity was analyzed, considering the intensity of proliferative processes in cells, photosensitizer concentration, and dose of optical power. For each point, 3 flasks with cell monolayer were used.
The monolayer culture of HeLa tumor cells was chosen and used as the cell.
The culture of HeLa tumor cells was grown in nutrient medium 199 or in nutrient medium containing hemohydrolyzate supplemented with 10% fetal bovine serum and […] of kanamycin.
On day 4 after the cell culture was inoculated in the flasks (100,000 cells per 2.0 ml of nutrient medium), the photosensitizer was added at a concentration of 1, 2.5, 5.0, 10.0, 20.0, or 30.0 mg/ml.
Flasks with light-protective cover (dark cytotoxicity) were incubated at 37.5° C. for 1 hour. The cells were washed with Hank's solution 4 times. 2.0 ml of fresh nutrient medium were added, and the cells were irradiated at the temperature of melting ice for 5, 10, 15 or 20 mins by the light flux of a “METALAZ” laser medical device (wavelength: 627.8 nm, 578.2 or 510.6 nm) or “LD 680-2000” (wavelength: 670-690 nm), depending on the wavelength of maximum spectral absorption of the studied photosensitizer, at a dose of 40 J/cm^2. After 20-24 hours, the number of tumor cell was counted in Goriaev's chamber.

The subject of test [4] is Hela cells. The test can be described thus: Accumulation in Hela cells. It counts as cell-based. To be noted: 2×10^−7 M/l, 37° C. As to the method: The cellular accumulation and the targeted delivery of the photoactive compounds were investigated using Hela cells, which is one of the numerous tumor cell types that overexpress folate receptors.
Cells were cultivated for 3 days in medium 199, and transferred to Hank's solution/medium 199 (9/1). After 3 hours, the cell were collected by trypsin treatment from the substrate and placed in Hank's solution (10^5 κπ/ml). To cell suspensions, chlorin e6 conjugates were added at a concentration of 2×10^−7 M/l, and incubated at 37° C. After 1, 5, 10, 15, and 24 hours, the samples were centrifuged, the pellet was washed with the cooled Hank's solution, and transferred to Hank's solution at a concentration being equal to that in the initial suspension.

The test system of test [5] is transporter of restored vectors (TRV). To be noted: cited from earlier work.

Regarding `C=Cc1c(C)c2cc3nc(c(CC(=O)O)c4[nH]c(cc5nc(cc1[nH]2)C(C)=C5CC)c(C)c4C(=O)O)C(CCC(=O)O)C3C` (stereo not drawn) [chlorin e6, 13-carboxy-17-[2-carboxyethyl]-15-carboxymethyl-17,18-trans-dihydro-3-vinyl-8-ethyl-2,7,12,18-tetramethylporphyrin], the “phototoxicity / photosensitivity in survival test” value in test [1] is “little phototoxicity”. Also, the “number of HELA cells (relative to the control)” value in test [2] (photoexposure 3.3 joule/cm^2, conc. 0.1 mcg/ml) stood at 87.1; in test [2] (photoexposure 3.3 joule/cm^2, conc. 0.5 mcg/ml), 83.6; in test [2] (photoexposure 3.3 joule/cm^2, conc. 1.0 mcg/ml), 64.7; in test [2] (photoexposure 3.3 joule/cm^2, conc. 5.0 mcg/ml) it was 19; in test [2] (photoexposure 3.3 joule/cm^2, conc. 10.0 mcg/ml), 3.8. Moreover, the cell survival rates result in test [3] is “about 90%”. Moreover, the “concentration in Hela cells” value turned out to be 0.86 relative units/10^4cl in test [4] (incubation time 1 hours); 1.45 relative units/10^4cl in test [4] (incubation time 5 hours); 1.72 relative units/10^4cl in test [4] (incubation time 10 hours); 0.81 relative units/10^4cl in test [4] (incubation time 15 hours); 0.40 relative units/10^4cl in test [4] (incubation time 24 hours).
As for `Nc1nc(O)c2nc(CNc3ccc(C(=O)N[C@@H](CCC(=O)O)C(=O)O)cc3)cnc2n1` [folic acid, N-[4(2-Amino-4-hydroxypteridin-6-ylmethylamino)benzoyl]-L(+)-glutamic acid], the “affinity of the carrier (TRV)” value in test [5] is on record as “about 200 μM”.
